From US20260365732A1, “METHODS OF TREATING CANCER IN SUBJECTS WITH PRIOR IMMUNE CHECKPOINT INHIBITOR EXPOSURE” (Curis, Inc., priority 2023, published 2026)

Legend:
bone marrow (BM) blasts = test: Clinical study of emavusertib (Compound 1) on bone marrow (BM) blasts in AML / hrMDS patients with vs without prior immune checkpoint inhibitor exposure (FIG. 1A, FIG. 1B); type: in vivo, human
Excerpt: FIG. 1A is a graph showing the results of a clinical study for the efficacy of emavusertib (Compound 1) administration on reducing bone marrow (BM) blasts in patients with blood cancer. Blasts are immature white blood cells that are usually found in small numbers in healthy bone marrow. High levels of blasts circulating in the blood are associated with cancer. This clinical study measured the change in blast levels before and after receiving Compound 1 treatment. Here, the relative change in blast levels before and after Compound 1 is compared between patients who had previously received immune checkpoint inhibitors in prior treatment and patients who were naïve to immune checkpoint inhibitors. The comparison groups each contain at least 5 high risk myelodysplastic syndrome (hrMDS) patients and 1 acute myeloid leukemia (AML) patient.
FIG. 1B is a graph showing baseline and best post-treatment blast levels of the subjects in FIG. 1A. […] Each patient is shaded according to their diagnosis.
To support the development of effective treatment regimens with Compound 1, a study was conducted to monitor bone marrow (BM) samples obtained from AML and high risk MDS patients with different prior histories of treatment. […] The present disclosure relates to methods of treating cancer with Compound 1 and other IRAK4 inhibitors or degraders, wherein the subject has a history of treatment with an immune checkpoint inhibitor.
This is a Phase 1, open-label dose escalation and cohort expansion study of Compound 1 as a monotherapy in patients with AML or MDS and in combination with AZA in treatment-naïve, adult patients with AML or hrMDS or in combination with VEN in patients with relapsed/refractory AML or hrMDS, after first line therapy.

[1] = Study Compound 1-101 (safety, drug exposure, biologic activity and clinical efficacy at 200 mg BID); type: in vivo, human
Excerpt: Three patients with AML or MDS will be enrolled at the designated dose. If none of the first 3 patients experience a dose-limiting toxicity during the first cycle, patients may be enrolled into the next higher dose level. If 1 patient out of the first 3 experiences a dose-limiting toxicity, the dose level may be expanded with an additional 3 patients.

Cc1cc(-c2nc(C(=O)Nc3cc4oc(N5CCOCC5)nc4nc3N3CC[C@@H](O)C3)co2)ccn1 [Compound 1, emavusertib]
rate of response, as evidenced by reduced BM blast counts in hematology (bone marrow (BM) blasts; AML and high risk MDS patients, history of treatment with an immune checkpoint inhibitor vs no prior exposure): higher rate of response
relative change in blast levels before and after Compound 1 (bone marrow (BM) blasts; patients with prior immune checkpoint inhibitors (magrolimab, ipilimumab, or nivolumab + ipilimumab) vs not previously exposed, each group at least 5 hrMDS and 1 AML patient, FIG. 1A): significant reduction in blasts
change in bone marrow blast counts from baseline to best post-baseline (bone marrow (BM) blasts; prior immune checkpoint inhibitor exposure compared to no prior exposure, FIG. 1B): higher decreases in bone marrow blast counts
baseline vs best post-baseline bone marrow blasts counts (bone marrow (BM) blasts; prior immune checkpoint inhibitor exposure vs without exposure, FIG. 1A): significant difference
biologic activity and clinical efficacy [1]: signs of biologic activity and clinical efficacy
safety of starting dose level [1]: safe
